In patent publication US12624039B2, “BTK inhibitors” (DIZAL (JIANGSU) PHARMACEUTICAL CO., LTD., priority 2020, dated 2026):

Legend:
[1] = target: T1, BTK-C481S in HEK293-BTK(C481S) cells (Homo sapiens, UniProt Q06187, C481S); assay: HEK293-BTK(C481S) p-BTK ELISA; format: cell-based; conditions: 1.5 hour
T1 construct: Full-length cDNAs of BTK containing C481S mutation was generated by mutagenesis; expressed in transfected cells
Experimental: (§1) The mutated BTK cDNAs were confirmed by sequencing. […] The transfected cells were selected in 2 μg/mL of puromycin. Stable polyclonal cell lines were confirmed by WB and used for further study. […] All the cells were maintained in a humidified incubator at 37° C. with 5% CO2.
(§2) The test compounds were added to the cells and cells were incubated for 1.5 hour at 37° C., 5% CO2. […] The plate was read on a Multiscan Spectrum reader set to 450 nm wavelengths. The data were processed in Graph Pad Prism software.

[2] = In vitro rat hepatocytes clearance assay; format: in vitro ADME
Experimental: In Vitro Rat/Human Hepatocytes Clearance Assay
Rat hepatocytes in male gender and human hepatocytes in mixed gender were obtained from commercial vendors (e.g., BioreclamationIVT) and stored at −150° C. prior to use. 10 mM stock solutions of tested compounds were prepared in DMSO. Thawing medium and supplement incubation medium (serum-free) were placed in a 37° C. water bath for at least 15 minutes prior to use. Stock solutions were diluted to 100 μM by combining 198 μL acetonitrile and 2 μL of 10 mM stock solution.
Vials of cryopreserved hepatocytes were removed from storage, ensured that vials remain at cryogenic temperatures. The vials were thawed in a 37° C. water bath with gently shaking. Vials were kept in a water bath until all ice crystals had dissolved and were no longer visible. Vials were sprayed with 70% ethanol before being transferred to a biosafety cabinet. And then the contents were poured into the 50 mL thawing medium conical tube. Vials were centrifuged at 100 g for 10 minutes at room temperature. Thawing medium was aspirated and hepatocytes were resuspended with serum-free incubation medium to yield ^˜1.5×10^6 cells/mL.
Cell viability and density were counted using a Trypan Blue exclusion, and then cells were diluted with serum-free incubation medium to a working cell density of 1×10^6 viable cells/ml. A portion of the hepatocytes at 1×10^6 viable cells/mL was boiled for 10 min prior to adding to the plate as negative control to eliminate the enzymatic activity so that little or no substrate turnover should be observed. The inactivated hepatocytes were used to prepare negative samples, which were used to exclude the misleading factor that resulted from instability of chemical itself.
Aliquots of 247.5 μL hepatocytes were dispensed into each well of a 96-well non-coated plate. The plate was placed in the incubator on an orbital shaker for approximately 10 minutes. Aliquots of 2.5 μL of the 100 μM test compounds were added into respective wells of the non-coated 96-well plate to start the reaction. This assay was performed in duplicate. The plate was incubated in the incubator on an orbital shaker for the designed time points. 20 μL of contents were transferred and mixed with 6 volumes (120 μL) of cold acetonitrile with internal standard to terminate the reaction at time points of 5, 15, 30, 45, 60, 80 and 100 minutes. Samples were centrifuges for 20 minutes at 4000 g and aliquots of 100 μl of the supernatants were used for LC-MS/MS analysis for measurement of test compounds.
In vitro hepatocyte clearance was estimated based on determination of elimination half-life (T1/2) of compounds disappearance from their initial concentrations. Peak area ratios of each compound (test or control) to IS was calculated. Ln (% Control) versus Incubation Time (min) curve was plotted, and the slope of a linear fitting line was calculated. Drug elimination rate constant k (min-1), T1/2 (min), and in vitro intrinsic clearance CLint (μL/min/E6) was calculated according to the following equations: k=−slope T1/2=0.693/k CLint=k/Chep • Where Chep (cells×μL-1) is the cell concentration in the incubation system. Procedure for Log D Determination

[3] = Log D determination (octanol/phosphate buffer); format: physicochemical; conditions: 25° C.
Experimental: 10 μL of working solution of each cassette is placed in order into respective 96-well rack position (Log D plate). Add 500 μL of saturated octanol into each vial of the above cap-less Log D plate followed by the addition of 500 μL of saturated phosphate buffer. Seal with a moulded PTFE/SIL 96-Well Plate Cover.
The samples are centrifuged at 4,000 rpm at 25° C. for 30 minutes to separate the phases. Pipette and syringe are used to pipette about 100 μL from the octanol and buffer phases to a new 96-well plate, respectively.
5 μL of octanol sample is transferred to a new 96-well plate, followed by addition of 495 μL of a mixture of H2O and acetonitrile containing internal standard (1:1) as 100 fold octanol samples. Vortex for 5 minutes at 1,000 rpm.
50 μL of 100 fold samples are transferred to new 96-well plate, followed by addition of 450 μL of a mixture of H2O and acetonitrile containing internal standard (1:1) as 1,000 fold octanol samples. Vortex for 5 minutes at 1,000 rpm.
The 1,000 folds octanol samples are serially diluted into 10,000, 100,000 and 1,000,000 folds with a mixture of H2O and acetonitrile containing internal standard (1:1).
50 μL of buffer samples are transferred to new 96-well plate, followed by addition of 450 μL of a mixture of H2O and acetonitrile containing internal standard (1:1) as 10 folds buffer samples. Vortex for 5 minutes at 1,000 rpm.
The 10 folds buffer samples are serially diluted into 100, 1,000 and 10,000 folds with a mixture of H2O and acetonitrile containing internal standard (1:1). The samples are evaluated by LC/MS/MS analysis. All compounds are tested in singlicate.
All calculations are carried out using Microsoft Excel. The concentrations of test compound in octanol/buffer solution are evaluated by LC/MS/MS. Calculate the Log D value of the test compound as follows:
[formula] DF means the dilution factor. Procedure for Protein Binding Measurements in Human Plasma by Using Equilibrium Dialysis

[4] = target: T2, BTK(WT) in HEK293-BTK(WT) cells (Homo sapiens, UniProt Q06187); assay: HEK293-BTK(WT) p-BTK ELISA; format: cell-based; conditions: 1.5 hour
T2 construct: Full-length cDNAs of BTK containing C481S mutation was generated by mutagenesis; expressed in transfected cells
Experimental: as §1, §2

Hu Mic Clint = format: in vitro ADME, human; conditions: for microsomal CLint: human, microsomes
TMD-8 cells = assay: TMD-8 anti-proliferation assay; format: cell-based
Experimental: TMD-8 Anti-Proliferation Assay
TMD-8 cells were prepared in RPMI1640 media containing 10% foetal bovine, and plated in 384 well plates at 1500 cells per well, The cells were incubated overnight at 37° C., 5% CO2. After incubation, compounds with different concentration were added to the assay plates and incubate cells for a further 72 hours at 37° C., 5% CO2. Following 72 hours incubation, 15 μl of CellTiter 96® AQueous One Solution Reagent was added to each well and the plates incubated at room temperature for 30 mins. Cell viability was determined using the CellTiter-Glo (Promega, USA). The CellTiter-Glo assay was performed according to the manufacturer's instructions, and luminescence was determined in a multi-label reader (Envision, PerkinElmer, USA). The data were processed in XLfit software.

T1 sequence (Q06187 whole entry C481S): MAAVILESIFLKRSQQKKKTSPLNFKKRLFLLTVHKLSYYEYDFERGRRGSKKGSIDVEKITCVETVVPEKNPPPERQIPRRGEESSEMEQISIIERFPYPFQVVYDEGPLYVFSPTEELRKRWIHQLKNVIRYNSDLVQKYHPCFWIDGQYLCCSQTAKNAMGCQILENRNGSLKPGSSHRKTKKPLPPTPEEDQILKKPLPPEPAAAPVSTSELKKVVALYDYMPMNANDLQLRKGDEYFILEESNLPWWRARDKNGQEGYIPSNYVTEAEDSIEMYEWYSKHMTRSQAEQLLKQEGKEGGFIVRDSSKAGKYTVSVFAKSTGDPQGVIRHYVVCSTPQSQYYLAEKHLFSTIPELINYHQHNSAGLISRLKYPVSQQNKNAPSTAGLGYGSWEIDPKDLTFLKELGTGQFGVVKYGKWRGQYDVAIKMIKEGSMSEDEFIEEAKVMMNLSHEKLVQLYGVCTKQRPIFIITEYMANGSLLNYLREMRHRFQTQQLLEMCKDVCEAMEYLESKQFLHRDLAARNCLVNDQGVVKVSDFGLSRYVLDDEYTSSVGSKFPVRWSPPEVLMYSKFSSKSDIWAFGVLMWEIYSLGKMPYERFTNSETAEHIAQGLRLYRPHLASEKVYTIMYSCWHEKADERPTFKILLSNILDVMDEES

Nc1ncnn2c(C3CCC(CO)OC3)nc(-c3ccc(Oc4ccccc4)c(F)c3F)c12 (centres unmarked) [Compound 12, (5-(4-amino-5-(2,3-difluoro-4-phenoxyphenyl)imidazo[1,5-f][1,2,4]triazin-7-yl)tetrahydro-2H-pyran-2-yl)methanol]
IC50 [1]: 46.8 nM | Rat Hep Clint [2]: 46.8 μL/min/10∧6 cells | logD at 2 h [3]: 3.18 | IC50 [4]: 17.6 nM | microsomal CLint (Hu Mic Clint): < 3 µL/min/mg

Nc1nccn2c(C3CCC(CO)OC3)nc(-c3ccc(Oc4ccccc4)cc3F)c12 (single isomer, unassigned) [Compound 3, Trans-(5-(8-amino-1-(2-fluoro-4-phenoxyphenyl)imidazo[1,5-a]pyrazin-3-yl)tetrahydro-2H-pyran-2-yl)methanol]
Rat Hep Clint [2]: 8.8 μL/min/10∧6 cells | logD [3]: 2.88 | IC50 (TMD-8 cells; 72 hours): 106 nM | Hu Mic Clint (Hu Mic Clint): 23.7 µL/min/mg

Nc1nccn2c(C3CCC(CO)OC3)nc(-c3ccc(Oc4ccccc4)cc3F)c12 (single isomer, unassigned) [Compound 2, Trans-(5-(8-amino-1-(2-fluoro-4-phenoxyphenyl)imidazo[1,5-a]pyrazin-3-yl)tetrahydro-2H-pyran-2-yl)methanol]
IC50 [1]: 70.6 nM | Rat Hep Clint [2]: 6.1 μL/min/10∧6 cells | logD at 2 h [3]: 3.01 | IC50 [4]: 27.3 nM | IC50 (TMD-8 cells; 72 hours): 22.7 nM | microsomal CLint (Hu Mic Clint): 12.7 µL/min/mg

Nc1ncnn2c(C3CCC(CO)OC3)nc(-c3ccc(Oc4cccc(F)c4F)cc3)c12 (centres unmarked) [Compound 14, (5-(4-amino-5-(4-(2,3-difluorophenoxy)phenyl)imidazo[5,1-f][1,2,4]triazin-7-yl)tetrahydro-2H-pyran-2-yl)methanol]
IC50 [1]: 36.3 nM | Rat Hep Clint [2]: 9.48 μL/min/10∧6 cells | logD at 2 h [3]: 3.29 | IC50 [4]: 16 nM | microsomal CLint (Hu Mic Clint): < 3 µL/min/mg

Nc1nccn2c(C3CCC(CO)OC3)nc(-c3ccc(Oc4ccccc4)c(F)c3F)c12 (single isomer, unassigned) [Compound 5, (5-(8-amino-1-(2,3-difluoro-4-phenoxyphenyl)imidazo[1,5-a]pyrazin-3-yl)tetrahydro-2H-pyran-2-yl)methanol]
Rat Hep Clint [2]: 9.0 μL/min/10∧6 cells | logD [3]: 2.89 | IC50 (TMD-8 cells; 72 hours): 102 nM | Hu Mic Clint (Hu Mic Clint): 13.0 µL/min/mg

Nc1ncnn2c(C3CCC(CO)OC3)nc(-c3ccc(Oc4ccccc4)cc3F)c12 (single isomer, unassigned) [Compound 8, (5-(4-amino-5-(2-fluoro-4-phenoxyphenyl)imidazo[5,1-f][1,2,4]triazin-7-yl)tetrahydro-2H-pyran-2-yl)methanol]
Rat Hep Clint [2]: 48.5 μL/min/10∧6 cells | logD at 2 h [3]: 3.1 | IC50 (TMD-8 cells; 72 hours): 77 nM | Hu Mic Clint (Hu Mic Clint): 41.3 µL/min/mg

Nc1nccn2c(C3CCC(CO)OC3)nc(-c3ccc(Oc4ccccc4)cc3)c12 (centres unmarked) [Compound 1, (5-(8-amino-1-(4-phenoxyphenyl)imidazo[1,5-a]pyrazin-3-yl)tetrahydro-2H-pyran-2-yl)methanol]
Rat Hep Clint [2]: 12.4 μL/min/10∧6 cells | logD at 2 h [3]: 3.14 | IC50 (TMD-8 cells; Homo sapiens, TMD8, 72 h): 24.2 nM | microsomal CLint (Hu Mic Clint): 44.9 µL/min/mg

Nc1ncnn2c(C3CCC(CO)OC3)nc(-c3ccc(Oc4ccccc4)cc3F)c12 (single isomer, unassigned) [Compound 9, (5-(4-amino-5-(2-fluoro-4-phenoxyphenyl)imidazo[1,5-a][1,2,4]triazin-7-yl)tetrahydro-2H-pyran-2-yl)methanol]
Rat Hep Clint [2]: 27.2 μL/min/10∧6 cells | logD [3]: 3.00 | IC50 (TMD-8 cells; 72 hours): 160 nM | Hu Mic Clint (Hu Mic Clint): 34.3 µL/min/mg

Nc1nccn2c(C3CCC(CO)OC3)nc(-c3ccc(Oc4cccc(F)c4F)cc3)c12 (single isomer, unassigned) [Compound 6, (5-(8-amino-1-(4-(2,3-difluorophenoxy)phenyl)imidazo[1,5-a]pyrazin-3-yl)tetrahydro-2H-pyran-2-yl)methanol]
IC50 [1]: 75.4 nM | Rat Hep Clint [2]: 8.2 μL/min/10∧6 cells | logD at 2 h [3]: 3.28 | IC50 [4]: 33.4 nM | IC50 (TMD-8 cells; 72 hours): 27.4 nM | microsomal CLint (Hu Mic Clint): 8.8 µL/min/mg

Nc1nccn2c(C3CCC(CO)OC3)nc(-c3ccc(Oc4cccc(F)c4F)cc3)c12 (single isomer, unassigned) [Compound 7, (5-(8-amino-1-(4-(2,3-difluorophenoxy)phenyl)imidazo[1,5-a]pyrazin-3-yl)tetrahydro-2H-pyran-2-yl)methanol]
Rat Hep Clint [2]: 4.9 μL/min/10∧6 cells | logD [3]: 3.19 | IC50 (TMD-8 cells; 72 hours): 219 nM | Hu Mic Clint (Hu Mic Clint): 13.3 µL/min/mg

Nc1ncnn2c(C3CCC(CO)OC3)nc(-c3ccc(Oc4ccccc4)cc3F)c12 (single isomer, unassigned) [Compound 10, Trans-(5-(4-amino-5-(2-fluoro-4-phenoxyphenyl)imidazo[5,1-f][1,2,4]triazin-7-yl)tetrahydro-2H-pyran-2-yl)methanol]
IC50 [1]: 170 nM | Rat Hep Clint [2]: 17.1 μL/min/10∧6 cells | logD [3]: 3.07 | IC50 [4]: 60 nM | IC50 (TMD-8 cells; 72 hours): 32.2 nM | Hu Mic Clint (Hu Mic Clint): 7.0 µL/min/mg

Nc1ncnn2c(C3CCC(CO)OC3)nc(-c3ccc(Oc4ccccc4)cc3F)c12 (single isomer, unassigned) [Compound 11, Trans-(5-(4-amino-5-(2-fluoro-4-phenoxyphenyl)imidazo[5,1-f][1,2,4]triazin-7-yl)tetrahydro-2H-pyran-2-yl)methanol]
Rat Hep Clint [2]: 11.7 μL/min/10∧6 cells | logD [3]: 3.09 | IC50 (TMD-8 cells; 72 hours): 70.9 nM | Hu Mic Clint (Hu Mic Clint): 9.3 µL/min/mg
